This passage reports TGI results from PubChem BioAssay (NCI).

Molecules are shown by their SMILES.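 Cultured in 96-well plates, cells were exposed to test compound for 48 hours across five concentrations. TGI is the concentration that stops growth completely.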

Among the test systems are HCT-15 colon; OVCAR-4 ovarian; UACC-257 melanoma; SF-539 CNS; K-562 leukemia; DU-145 prostate; PC-3 prostate; RPMI-8226 leukemia; SK-MEL-28 melanoma; MALME-3M melanoma; OVCAR-3 ovarian; HCT-116 colon; 786-0 renal; CCRF-CEM leukemia; KM12 colon; OVCAR-8 ovarian; UACC-62 melanoma; CAKI-1 renal; RXF 393 renal.
Test in all cases: growth of human tumour cells (NCI), 48 h

`COC(=O)C[C@@H]1C(C)(C)[C@@H]2O[C@@]34C[C@@H]2C(=O)[C@]1(C)[C@H]3CC[C@@]1(C)[C@H](c2ccoc2)OC(=O)C[C@]14O`: the TGI in the assay with HCT-15 colon, in the assay with OVCAR-4 ovarian, in the assay with UACC-257 melanoma, with SF-539 CNS, with K-562 leukemia and in the assay on DU-145 prostate was above 100 µM each time. The TGI in the assay on PC-3 prostate, in the assay with RPMI-8226 leukemia, in the assay with SK-MEL-28 melanoma, with MALME-3M melanoma, in the assay with OVCAR-3 ovarian and in the assay with HCT-116 colon was above 100 µM each time. The TGI in the assay with 786-0 renal, in the assay on CCRF-CEM leukemia, in the assay on KM12 colon, in the assay with OVCAR-8 ovarian, in the assay on UACC-62 melanoma and in the assay with CAKI-1 renal was above 100 µM each time.
Take `Cc1ccc(OCC2OC(C#N)C(Oc3ccc(C)cc3)C2Oc2ccc(C)cc2)cc1` (stereo not drawn): the TGI in the assay on HCT-15 colon, with OVCAR-4 ovarian, in the assay on SF-539 CNS, in the assay on K-562 leukemia, in the assay with DU-145 prostate and in the assay with PC-3 prostate was above 100 µM each time. For the same compound, the TGI in the assay with RPMI-8226 leukemia, in the assay on SK-MEL-28 melanoma, with RXF 393 renal, in the assay on OVCAR-3 ovarian, in the assay on HCT-116 colon and in the assay on 786-0 renal was above 100 µM in each case. Moreover, the TGI with CCRF-CEM leukemia, in the assay on KM12 colon, with OVCAR-8 ovarian, with UACC-62 melanoma and in the assay on CAKI-1 renal was above 100 µM each time.
For the compound `NCC#CCNCCCN1CC1`, the TGI in the assay on HCT-15 colon, in the assay on OVCAR-4 ovarian, with UACC-257 melanoma, in the assay with SF-539 CNS, in the assay on K-562 leukemia and in the assay on DU-145 prostate was above 100 µM in each case. For the same compound, the TGI in the assay with PC-3 prostate, in the assay with RPMI-8226 leukemia, in the assay with SK-MEL-28 melanoma, in the assay with MALME-3M melanoma, in the assay with OVCAR-3 ovarian and in the assay on HCT-116 colon was above 100 µM throughout. Also, the TGI in the assay with 786-0 renal, with KM12 colon, in the assay on OVCAR-8 ovarian, with UACC-62 melanoma and in the assay on CAKI-1 renal was above 100 µM each time.
Take `C=C(C)CC1=C(OCC)C(OC)(OCC)C1=O` (stereo not drawn): the TGI in the assay with HCT-15 colon, in the assay with OVCAR-4 ovarian, with UACC-257 melanoma, with SF-539 CNS, in the assay with DU-145 prostate and in the assay on PC-3 prostate was above 100 µM in each case. In addition, the TGI in the assay with SK-MEL-28 melanoma, with OVCAR-3 ovarian, in the assay with HCT-116 colon, in the assay on 786-0 renal, with CCRF-CEM leukemia and in the assay with KM12 colon was above 100 µM throughout. Further, the TGI in the assay with OVCAR-8 ovarian, in the assay with UACC-62 melanoma and with CAKI-1 renal was above 100 µM in each case.
Take `O=C(NC1CCC(=O)N1C(=O)OCc1ccccc1)OCc1ccccc1` (stereo not drawn): the TGI in the assay with HCT-15 colon, in the assay with UACC-257 melanoma, in the assay with SF-539 CNS, with K-562 leukemia, in the assay on DU-145 prostate and with PC-3 prostate was above 100 µM throughout. The TGI in the assay with RPMI-8226 leukemia, in the assay on SK-MEL-28 melanoma, with MALME-3M melanoma, with RXF 393 renal, in the assay on OVCAR-3 ovarian and in the assay on 786-0 renal was above 100 µM each time. Further, the TGI in the assay with KM12 colon, in the assay with OVCAR-8 ovarian, in the assay with UACC-62 melanoma and in the assay on CAKI-1 renal was above 100 µM throughout.
Regarding `CC1(C)CC[C@]2(C(=O)O)CC[C@]3(C)C(=CC[C@@H]4[C@@]5(C)C[C@H](O)[C@H](O)[C@@](C)(CO)C5=CC[C@]43C)[C@@H]2C1`, the TGI was above 100 µM in the assay on HCT-15 colon; 68.5 µM in the assay on OVCAR-4 ovarian; above 100 µM in the assay with UACC-257 melanoma; above 100 µM in the assay with SF-539 CNS; above 100 µM in the assay on K-562 leukemia; above 100 µM with DU-145 prostate. Further, the TGI in the assay on PC-3 prostate, with RPMI-8226 leukemia, in the assay on SK-MEL-28 melanoma, with MALME-3M melanoma, in the assay with OVCAR-3 ovarian and in the assay on HCT-116 colon was above 100 µM each time. Moreover, the TGI with 786-0 renal, in the assay with CCRF-CEM leukemia, in the assay with KM12 colon, with OVCAR-8 ovarian, in the assay with UACC-62 melanoma and in the assay with CAKI-1 renal was above 100 µM throughout.
For the compound `C=CC1ON(C)CCc2cc(OC)c(OC)cc21` (stereo not drawn), the TGI in the assay on HCT-15 colon, in the assay with UACC-257 melanoma, with SF-539 CNS, in the assay on K-562 leukemia, with DU-145 prostate and in the assay with PC-3 prostate was above 100 µM throughout. In addition, the TGI in the assay on RPMI-8226 leukemia, in the assay on SK-MEL-28 melanoma, with MALME-3M melanoma, in the assay with OVCAR-3 ovarian, in the assay with HCT-116 colon and in the assay with 786-0 renal was above 100 µM each time. Also, the TGI in the assay on CCRF-CEM leukemia, with KM12 colon, in the assay with OVCAR-8 ovarian, with UACC-62 melanoma and with CAKI-1 renal was above 100 µM in each case.
On to `CCCCCCCCCCCCn1c(=O)cc(NCCCC)c2cc3c(NCCCC)cc(=O)n(CCCCCCCCCCCC)c3nc21`, for which the TGI with HCT-15 colon, in the assay on OVCAR-4 ovarian, in the assay with UACC-257 melanoma, in the assay on K-562 leukemia, with DU-145 prostate and in the assay with PC-3 prostate was above 100 µM in each case. Also, the TGI in the assay with RPMI-8226 leukemia, with SK-MEL-28 melanoma, with MALME-3M melanoma, in the assay with OVCAR-3 ovarian, in the assay on HCT-116 colon and in the assay on 786-0 renal was above 100 µM throughout. In addition, the TGI in the assay with KM12 colon, with UACC-62 melanoma and in the assay on CAKI-1 renal was above 100 µM throughout.
